Structures can show the parent of a compound that is named as a salt.

For one assay, the target named is T1, E-cNOS (Type 3) (Bos taurus, UniProt P29473).
T1 construct: the resulting supernatant was used as the crude enzyme sample of E-cNOS; endogenous in cells; host or cells: CPAE (cow pulmonary arterial endothelium cells), 1% Triton X-100 extract, 100,000 x g supernatant
T1 sequence (P29473 2-1205): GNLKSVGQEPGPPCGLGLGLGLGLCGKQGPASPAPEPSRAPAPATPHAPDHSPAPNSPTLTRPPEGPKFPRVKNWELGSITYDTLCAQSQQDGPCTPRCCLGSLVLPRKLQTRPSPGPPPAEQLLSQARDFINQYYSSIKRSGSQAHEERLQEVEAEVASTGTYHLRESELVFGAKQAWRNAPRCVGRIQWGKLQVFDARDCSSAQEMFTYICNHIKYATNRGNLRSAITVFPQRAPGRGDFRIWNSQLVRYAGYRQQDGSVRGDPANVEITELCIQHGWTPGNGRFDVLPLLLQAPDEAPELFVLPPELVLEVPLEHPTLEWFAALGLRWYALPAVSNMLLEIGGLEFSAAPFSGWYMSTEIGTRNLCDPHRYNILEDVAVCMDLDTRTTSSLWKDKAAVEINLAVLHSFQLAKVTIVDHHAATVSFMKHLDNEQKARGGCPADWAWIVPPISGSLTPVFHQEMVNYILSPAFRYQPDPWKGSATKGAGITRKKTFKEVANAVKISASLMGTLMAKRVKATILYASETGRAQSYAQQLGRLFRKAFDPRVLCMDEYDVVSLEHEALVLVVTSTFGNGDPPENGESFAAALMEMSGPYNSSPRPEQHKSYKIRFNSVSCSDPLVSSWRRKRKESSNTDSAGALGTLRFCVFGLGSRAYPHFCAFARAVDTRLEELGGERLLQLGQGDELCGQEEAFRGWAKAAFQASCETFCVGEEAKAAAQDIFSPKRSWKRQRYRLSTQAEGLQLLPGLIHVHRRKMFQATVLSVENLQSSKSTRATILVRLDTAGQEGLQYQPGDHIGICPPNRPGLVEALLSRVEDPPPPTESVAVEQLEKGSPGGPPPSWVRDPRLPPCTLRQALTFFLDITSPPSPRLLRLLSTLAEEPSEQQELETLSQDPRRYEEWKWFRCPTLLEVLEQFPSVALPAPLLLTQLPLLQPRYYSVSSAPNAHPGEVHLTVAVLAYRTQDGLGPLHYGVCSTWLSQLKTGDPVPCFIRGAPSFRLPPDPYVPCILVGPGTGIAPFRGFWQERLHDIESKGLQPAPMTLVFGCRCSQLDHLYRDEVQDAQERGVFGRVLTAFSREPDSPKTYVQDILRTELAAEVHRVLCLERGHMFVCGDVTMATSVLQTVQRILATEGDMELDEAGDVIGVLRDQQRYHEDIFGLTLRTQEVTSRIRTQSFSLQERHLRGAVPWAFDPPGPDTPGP
Put plainly: biochemical.
Conditions: not given
One may read the IC50 as the concentration that gives 50% inhibition. Take `CCSC(=N)Nc1ccc(CC(C)(C)N)cc1` [Example 193, N-(1,1-dimethyl-2-(4-(S-ethylisothioureido)phenyl)ethyl)amine dihydrochloride]: it took 1540 nM to reach half-maximal inhibition (IC50).
Consider `CSC(=N)Nc1cccc(C2(N)CCCCC2)c1` [Example 142, N-(1-(3-(S-methylisothioureido)phenyl)cyclohexyl)amine dihydrochloride], for which the IC50 was 663 nM.
`NC(=N[N+](=O)[O-])Nc1cccc(C2(N)CCCCC2)c1` [Example 169, N-(1-(3-(N′-nitroguanidino)phenyl)cyclohexyl)amine hydrochloride] displayed an IC50 of 41.5 nM.
As for `CCN=C(N)Nc1ccc(CCN)c(F)c1` [Example 258, N-(2-(4-(N′-ethylguanidino)-2-fluorophenyl)ethyl)amine dihydrochloride], 1090 nM corresponded to half-maximal inhibition (IC50).
The compound `CCSC(=N)Nc1ccc(CCN)c(OC)c1` [Example 482, N-(2-(4-(S-ethylisothioureido)-2-methoxyphenyl)ethyl)amine dihydrochloride] returned an IC50 of 1990 nM.
`CCSC(=N)Nc1cccc(C2(N)CCCCC2)c1` [Example 144, N-(1-(3-(S-ethylisothioureido)phenyl)cyclohexyl)amine dihydrochloride] came in with an IC50 of 898 nM.
Consider `CCN=C(N)Nc1cccc(C2(N)CCCCC2)c1` [Example 234, N-(1-(3-(N′-ethylguanidino)phenyl)cyclohexyl)amine dihydrochloride], for which the IC50 is 1170 nM.

The assay is the same for the next values; noted with them: mean of one to four independent experiments; CPAE cell crude enzyme; read-out: IC50 value, E-cNOS (Type 3).
Turning to `CCSC(=N)Nc1ccc(C(C)(C)CN)cc1` [Example 185, N-(2-(4-(S-ethylisothioureido)phenyl)-2-methylpropyl)amine dihydrochloride], the IC50 is 3170 nM.

Staying with this assay, now noted: mean of one to four independent experiments; crude enzyme, 100 nM L-[3H]arginine; read-out: IC50 value, E-cNOS (Type 3).
Take `CCSC(=N)Nc1cccc(CNC)c1` [Example 47, N-(3-(S-ethylisothioureido)phenylmethyl)methylamine dihydrochloride]: the IC50 is 72.9 nM.
On the same count and under the same terms, as for `CCSC(=N)Nc1cccc(C2(N)CCC2)c1` [Example 162, N-(1-(3-(S-ethylisothioureido)phenyl)cyclobutyl)amine dihydrochloride], the figure is 576 nM; as for `CCSC(=N)Nc1ccc(C(CN)C(=O)OC)cc1` (centres unmarked) [Example 226, 3-amino-2-(4-(S-ethylisothioureido)phenyl)propionic acid methyl ester dihydrochloride], 1440 nM; as for `CCSC(=N)Nc1cccc(C(C)NC)c1` (centres unmarked) [Example 112, N-(1-(3-(S-ethylisothiourido)phenyl)ethyl)methylamine dihydrochloride], 408 nM.
The same measure, in the same setting: to `CCSC(=N)Nc1ccc(F)c(CN)c1` [Example 317, N-(5-(S-ethylisothioureido)-2-fluorophenylmethyl)amine dihydrochloride] belongs 239 nM; to `CCSC(=N)Nc1cccc(CNN)c1` [Example 355, 3-(S-ethylisothioureido)phenylmethylhydrazine trihydrochloride], 662 nM.
Still for that read-out and setting: as for `NCc1cc(NC(N)=N[N+](=O)[O-])ccc1OCc1ccccc1` [Example 341, N-(2-benzyloxy-5-(N′-nitroguanidino)phenylmethyl)amine hydrochloride], the figure is 874 nM.
Consider `CCN=C(N)Nc1cccc(C(C)(C)N)c1` [Example 300, N-(1-(3-(N′-ethylguanidino)phenyl)-1-methylethyl) amine dihydrochloride], for which the IC50 was found to be 492 nM.
As to `CSC(=N)Nc1cccc(C2(N)CCCC2)c1` [Example 151, N-(1-(3-(S-methylisothioureido)phenyl)cyclopentyl)amine dihydrochloride], the IC50 came out at 262 nM.
As for `CCSC(=N)Nc1ccc(NCc2ccccc2)c(CN)c1` [Example 438, N-(2-benzylamino-5-(S-ethylisothioureido)phenylmethyl)amine trihydrochloride], the IC50 came to 6950 nM.
In the case of `CCN(C)C(=N)Nc1cccc(CN)c1` [Example 305, N-(3-(N′-ethyl-N′-methylguanidino)phenylmethyl)amine dihydrochloride], the 50% inhibitory concentration (IC50) worked out at 1710 nM.
As to `CSC(=N)Nc1cccc(C2(N)CCC2)c1` [Example 160, N-(1-(3-(S-methylisothioureido)phenyl)cyclobutyl)amine dihydrochloride], the concentration for half-maximal inhibition (IC50) stood at 477 nM.
The same measure, in the same setting: as for `CCN=C(N)Nc1ccc(CCN)cc1` [Example 528, N-(2-(4-(N′-ethylguanidino)phenyl)ethyl)amine dihydrochloride], the figure is 436 nM; as for `CCSC(=N)Nc1cccc(CN(C)C)c1` [Example 372, N-(3-(S-ethylisothioureido)phenylmethyl)dimethylamine], 360 nM; as for `CN=C(N)Nc1cccc(CN)c1` [Example 367, N-(3-(N′-methylguanidino)phenylmethyl)amine dihydrochloride], 3710 nM.
Same read-out and setting: as for `CN(C)c1ccc(NC(N)=N[N+](=O)[O-])cc1CN` [Example 281, N-(2-dimethylamino-5-(N′-nitroguanidino)phenylmethyl)amine dihydrochloride], the figure is 1620 nM; as for `CCSC(=N)Nc1cccc(C(C)N)c1` (centres unmarked) [Example 175, N-(1-(3-(S-ethylisothioureido)phenyl)ethyl)amine dihydrochloride], 200 nM.
As to `CCSC(=N)Nc1ccc(N(C)CC)c(CN)c1` [Example 288, N-(5-(S-ethylisothioureido)-2-(N-ethyl-N-methylamino)phenylmethyl)amine trihydrochloride], the IC50 was 1260 nM.
`CCNc1ccc(NC(=N)SCC)cc1CN(C(=O)OC(C)(C)C)C(=O)OC(C)(C)C` [Example 458, N-(2-ethylamino-5-(S-ethylisothioureido)phenylmethyl)iminodicarboxylic acid di-t-butyl ester]: the IC50 was determined as 4100 nM.
`CCSC(=N)Nc1cccc(C2(N)CC2)c1` [Example 167, N-(1-(3-(S-ethylisothioureido)phenyl)cyclopropyl)amine dihydrochloride]: the half-maximal inhibitory concentration (IC50) amounted to 366 nM.
For `CCN=C(N)Nc1cccc(C2(N)CCC2)c1` [Example 238, N-(1-(3-(N′-ethylguanidino)phenyl)cyclobutyl)amine dihydrochloride], the IC50 was 1160 nM.
Regarding `N=C(NCCC[C@H](N)C(=O)O)NC1CC1` [L-CPA, N^G-cyclpropyl-L-arginine, reference compound], the IC50 amounted to 987 nM.
In the case of `CCN=C(N)Nc1cccc(CNC)c1` [Example 376, N-(3-(N′-ethylguanidino)phenylmethyl)methylamine dihydrochloride], the IC50 worked out at 339 nM.
The same measure, in the same setting: as for `CCN=C(N)Nc1cccc(C2(N)CCCC2)c1` [Example 236, N-(1-(3-(N′-ethylguanidino)phenyl)cyclopentyl)amine dihydrochloride], the figure is 325 nM; as for `CCSC(=N)Nc1cccc(CN)c1Cl` [Example 137, N-(2-chloro-3-(S-ethylisothioureido)phenylmethyl)amine dihydrochloride], 485 nM.
As to `CCN=C(N)Nc1cccc(CN(C)C)c1` [Example 374, N-(3-(N′-ethylguanidino)phenylmethyl)dimethylamine dihydrochloride], the IC50 was 1290 nM.
Turning to `CCSC(=N)Nc1ccc(OC)c(CN)c1OC` [Example 298, N-(2,6-dimethoxy-3-(S-ethylisothioureido)phenylmethyl)amine dihydrochloride], the IC50 came out at 4140 nM.
Take `CCSC(=N)Nc1cccc(C2(N)CCCC2)c1` [Example 153, N-(1-(3-(S-ethylisothioureido)phenyl)cyclopentyl)amine dihydrochloride]: the IC50 amounted to 423 nM.
`NC(=N[N+](=O)[O-])Nc1cccc(C2(N)CCCC2)c1` [Example 171, N-(1-(3-(N′-nitroguanidino)phenyl)cyclopentyl)amine hydrochloride]: the 50% inhibitory concentration (IC50) amounted to 29.2 nM.
Turning to `N=C(Nc1cccc(C2(N)CCC2)c1)N[N+](=O)[O-]` [Example 173, N-(1-(3-(N′-nitroguanidino)phenyl)cyclobutyl)amine hydrochoride], the IC50 turned out to be 24.1 nM.
Take `CCN=C(N)Nc1ccc(N(C)CC)c(CN)c1` [Example 285, N-(5-(N′-ethylguanidino)-2-(N-ethyl-N-methyl-amino)phenylmethyl)amine trihydrochloride]: the IC50 was 7310 nM.
As to `CCSC(=N)Nc1cccc(CNC)c1C` [Example 411, N-(3-(S-ethylisothioureido)-2-methylphenylmethyl)methylamine dihydrochloride], the IC50 turned out to be 341 nM.
With `CCN=C(N)Nc1cccc(CCN)c1` [Example 543, N-(3-(N′-ethylguanidino)phenylethyl)amine dihydrochloride], the IC50 amounted to 3120 nM.
On the same count and under the same terms, to `CCSC(=N)Nc1cccc(C(N)CC)c1` (centres unmarked) [Example 177, N-(1-(3-(S-ethylisothioureido)phenyl)propyl)amine dihydrochloride] belongs 510 nM; to `CCN=C(N)Nc1cccc(CN)c1C` [Example 533, N-(3-(N′-ethylguanidino)-2-methylphenylmethyl)amine dihydrochloride], 3770 nM.

A further assay deals with iNOS (Type 2) (Rattus norvegicus, UniProt Q06518). Put plainly: biochemical. It counts as biochemical. As to conditions: conclusion from Tables 49, 50 and 51.
Sequence of iNOS (Type 2) (Q06518 whole entry, looked up): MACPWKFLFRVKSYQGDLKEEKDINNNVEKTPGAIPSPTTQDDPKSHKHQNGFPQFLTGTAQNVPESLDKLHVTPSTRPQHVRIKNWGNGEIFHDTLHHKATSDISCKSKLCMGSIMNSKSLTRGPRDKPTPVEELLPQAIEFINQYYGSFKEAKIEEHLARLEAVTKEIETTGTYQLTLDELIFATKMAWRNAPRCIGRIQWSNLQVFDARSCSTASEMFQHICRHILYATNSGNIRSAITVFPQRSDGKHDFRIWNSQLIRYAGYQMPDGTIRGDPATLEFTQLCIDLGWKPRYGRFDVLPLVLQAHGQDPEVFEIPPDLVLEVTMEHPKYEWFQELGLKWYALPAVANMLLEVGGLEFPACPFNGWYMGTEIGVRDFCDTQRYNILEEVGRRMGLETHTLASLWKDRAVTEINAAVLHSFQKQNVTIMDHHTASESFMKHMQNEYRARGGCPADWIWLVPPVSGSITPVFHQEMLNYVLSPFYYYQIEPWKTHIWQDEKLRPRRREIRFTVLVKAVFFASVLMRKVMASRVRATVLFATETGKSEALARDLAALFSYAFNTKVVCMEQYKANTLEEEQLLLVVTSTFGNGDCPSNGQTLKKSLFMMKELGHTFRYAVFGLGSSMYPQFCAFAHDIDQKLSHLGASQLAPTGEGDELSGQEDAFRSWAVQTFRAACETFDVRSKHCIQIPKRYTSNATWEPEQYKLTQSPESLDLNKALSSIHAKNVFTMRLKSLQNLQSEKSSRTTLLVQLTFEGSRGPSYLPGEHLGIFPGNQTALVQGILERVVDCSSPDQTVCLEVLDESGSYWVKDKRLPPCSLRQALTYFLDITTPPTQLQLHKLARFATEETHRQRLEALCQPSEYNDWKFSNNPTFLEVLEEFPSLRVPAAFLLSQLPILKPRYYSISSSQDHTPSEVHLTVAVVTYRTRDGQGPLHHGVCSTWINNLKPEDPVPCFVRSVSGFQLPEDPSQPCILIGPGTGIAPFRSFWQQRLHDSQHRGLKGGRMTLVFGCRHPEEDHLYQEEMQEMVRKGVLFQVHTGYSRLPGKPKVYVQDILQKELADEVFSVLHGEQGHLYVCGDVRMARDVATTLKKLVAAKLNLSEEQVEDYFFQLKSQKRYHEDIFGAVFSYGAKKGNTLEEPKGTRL
Turning to `CCSC(=N)Nc1cccc(CN)c1.Cl.Cl` [Example 28, N-(3-(S-ethylisothioureido)phenylmethyl)amine dihydrochloride], the “iNOS inhibitory potency compared with the existing NOS inhibitors (L-MIN)” value is “more potent in inhibiting iNOS than L-MIN”.

The same assay, now with this note: mean of one to four independent experiments; crude enzyme, 100 nM L-[3H]arginine, without CaCl2 and calmodulin; read-out: IC50 value, iNOS (Type 2).
For `CCC(N)c1cccc(NC(=N)SC)c1` (centres unmarked) [Example 19, N-(1-(3-(S-methylisothioureido)phenyl)propyl)amine dihydrochloride], the IC50 is 2400 nM.
For the compound `N=C(Nc1ccc(CCN)cc1)N[N+](=O)[O-]` [Example 54, N-(4-(N′-nitroguanidino)phenylethyl)amine], the IC50 amounted to 5020 nM.
For `CCSC(=N)Nc1cccc(CN)c1.Cl.Cl` [Example 28, N-(3-(S-ethylisothioureido)phenylmethyl)amine dihydrochloride], the IC50 came out at 32.7 nM.

(Values after US6534546B1 (Chugai Seiyaku Kabushiki Kaisha, priority 1994, dated 2003).)
